What was measured:
[1] = test system: eIF-2-alpha kinase GCN2 (Homo sapiens), Q9P2K8 [S808G]; settings: Compound concentration 1000.0 nM
[2] = target: TGF-beta receptor type-2 (Homo sapiens) (UniProt P37173); settings: Compound concentration 1000.0 nM
[3] = target: RAF proto-oncogene serine/threonine-protein kinase (Homo sapiens) (UniProt P04049); settings: Compound concentration 1000.0 nM
[4] = target: T1, Alpha-2A adrenergic receptor (Homo sapiens) (UniProt P08913); settings: Compound concentration 10.0 uM
T1 sequence (whole entry): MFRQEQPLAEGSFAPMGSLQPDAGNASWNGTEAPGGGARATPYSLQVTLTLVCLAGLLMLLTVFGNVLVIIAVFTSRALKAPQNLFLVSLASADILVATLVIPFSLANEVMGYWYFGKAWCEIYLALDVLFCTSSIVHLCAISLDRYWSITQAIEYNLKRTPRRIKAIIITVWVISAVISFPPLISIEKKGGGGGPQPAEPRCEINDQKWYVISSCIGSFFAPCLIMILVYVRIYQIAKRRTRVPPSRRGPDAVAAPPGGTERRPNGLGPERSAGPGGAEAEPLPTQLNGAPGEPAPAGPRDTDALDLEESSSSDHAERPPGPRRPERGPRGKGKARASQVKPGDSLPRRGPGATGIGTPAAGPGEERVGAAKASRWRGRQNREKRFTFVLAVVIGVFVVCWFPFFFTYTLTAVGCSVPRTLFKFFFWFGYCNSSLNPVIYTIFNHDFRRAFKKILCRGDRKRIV

[5] = target: Tyrosine-protein kinase ABL2 (Homo sapiens) (UniProt P42684); settings: Compound concentration 1000.0 nM
Tyrosine-protein kinase ABL2 (Homo sapiens), sequence (P42684 whole entry): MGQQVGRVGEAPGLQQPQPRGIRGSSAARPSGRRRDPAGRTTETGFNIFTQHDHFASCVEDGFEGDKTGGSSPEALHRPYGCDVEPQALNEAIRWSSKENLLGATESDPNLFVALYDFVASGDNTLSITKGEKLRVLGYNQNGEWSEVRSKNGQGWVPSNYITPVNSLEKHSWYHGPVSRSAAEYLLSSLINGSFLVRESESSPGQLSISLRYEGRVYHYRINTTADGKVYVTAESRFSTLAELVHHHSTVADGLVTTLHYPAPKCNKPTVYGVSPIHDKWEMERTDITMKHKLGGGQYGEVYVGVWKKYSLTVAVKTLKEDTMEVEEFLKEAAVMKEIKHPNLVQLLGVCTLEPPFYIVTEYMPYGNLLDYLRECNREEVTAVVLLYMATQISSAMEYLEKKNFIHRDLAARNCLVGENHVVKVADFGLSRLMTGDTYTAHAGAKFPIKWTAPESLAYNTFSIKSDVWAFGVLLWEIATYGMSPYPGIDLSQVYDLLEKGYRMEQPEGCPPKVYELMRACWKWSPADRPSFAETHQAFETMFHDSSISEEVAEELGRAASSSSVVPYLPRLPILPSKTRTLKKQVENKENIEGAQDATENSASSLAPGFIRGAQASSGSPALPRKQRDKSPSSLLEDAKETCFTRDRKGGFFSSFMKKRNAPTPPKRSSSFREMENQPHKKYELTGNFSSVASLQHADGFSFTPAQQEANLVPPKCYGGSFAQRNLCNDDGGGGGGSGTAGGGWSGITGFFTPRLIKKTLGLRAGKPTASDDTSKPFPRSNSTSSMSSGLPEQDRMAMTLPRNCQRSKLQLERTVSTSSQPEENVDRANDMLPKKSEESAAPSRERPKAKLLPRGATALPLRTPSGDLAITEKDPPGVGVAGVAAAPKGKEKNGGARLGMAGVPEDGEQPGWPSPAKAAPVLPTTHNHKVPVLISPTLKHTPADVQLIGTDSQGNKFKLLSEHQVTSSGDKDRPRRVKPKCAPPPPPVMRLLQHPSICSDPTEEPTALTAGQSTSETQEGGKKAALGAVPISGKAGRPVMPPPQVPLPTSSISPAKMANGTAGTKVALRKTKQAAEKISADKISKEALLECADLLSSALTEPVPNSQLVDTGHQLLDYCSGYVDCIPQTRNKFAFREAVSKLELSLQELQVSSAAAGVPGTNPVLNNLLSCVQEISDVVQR

[6] = target: Cyclin-dependent kinase 2 homolog (Plasmodium falciparum (isolate 3D7)) (UniProt P61075); settings: Compound concentration 1000.0 nM
Cyclin-dependent kinase 2 homolog (Plasmodium falciparum (isolate 3D7)), sequence (P61075 whole entry): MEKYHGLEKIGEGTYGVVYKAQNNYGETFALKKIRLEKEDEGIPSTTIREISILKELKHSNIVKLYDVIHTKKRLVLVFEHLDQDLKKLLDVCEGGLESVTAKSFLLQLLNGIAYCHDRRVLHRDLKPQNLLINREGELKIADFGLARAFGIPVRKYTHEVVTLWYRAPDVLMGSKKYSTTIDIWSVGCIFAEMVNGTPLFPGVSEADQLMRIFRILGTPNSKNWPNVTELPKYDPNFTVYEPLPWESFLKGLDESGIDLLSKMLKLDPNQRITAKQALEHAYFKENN

[7] = target: Phosphatidylinositol 4-phosphate 5-kinase type-1 alpha (Homo sapiens) (UniProt Q99755); settings: Compound concentration 1000.0 nM
[8] = target: Membrane-associated tyrosine- and threonine-specific cdc2-inhibitory kinase (Homo sapiens) (UniProt Q99640); settings: Compound concentration 1000.0 nM
Membrane-associated tyrosine- and threonine-specific cdc2-inhibitory kinase (Homo sapiens), sequence (Q99640 whole entry): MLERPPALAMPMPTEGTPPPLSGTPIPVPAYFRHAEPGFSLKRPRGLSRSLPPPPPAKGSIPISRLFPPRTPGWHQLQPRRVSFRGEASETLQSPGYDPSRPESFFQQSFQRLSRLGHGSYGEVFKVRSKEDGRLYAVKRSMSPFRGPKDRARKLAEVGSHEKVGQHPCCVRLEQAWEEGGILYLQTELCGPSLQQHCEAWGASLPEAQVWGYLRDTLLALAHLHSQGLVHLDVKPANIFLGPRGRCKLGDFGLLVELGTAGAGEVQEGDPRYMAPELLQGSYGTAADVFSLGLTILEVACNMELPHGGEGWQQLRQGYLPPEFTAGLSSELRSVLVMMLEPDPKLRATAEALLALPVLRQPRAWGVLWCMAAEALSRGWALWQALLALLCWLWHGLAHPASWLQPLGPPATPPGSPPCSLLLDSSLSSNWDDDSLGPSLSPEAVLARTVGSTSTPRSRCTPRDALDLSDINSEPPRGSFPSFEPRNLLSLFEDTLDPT

[9] = target: Serine/threonine-protein kinase DCLK3 (Homo sapiens) (UniProt Q9C098); settings: Compound concentration 1000.0 nM
[10] = test system: Epidermal growth factor receptor (Homo sapiens), P00533 [UNDEFINED MUTATION]; settings: Compound concentration 1000.0 nM
[11] = target: Mu-type opioid receptor (Homo sapiens) (UniProt P35372); settings: Compound concentration 10.0 uM
Mu-type opioid receptor (Homo sapiens), sequence (P35372 whole entry): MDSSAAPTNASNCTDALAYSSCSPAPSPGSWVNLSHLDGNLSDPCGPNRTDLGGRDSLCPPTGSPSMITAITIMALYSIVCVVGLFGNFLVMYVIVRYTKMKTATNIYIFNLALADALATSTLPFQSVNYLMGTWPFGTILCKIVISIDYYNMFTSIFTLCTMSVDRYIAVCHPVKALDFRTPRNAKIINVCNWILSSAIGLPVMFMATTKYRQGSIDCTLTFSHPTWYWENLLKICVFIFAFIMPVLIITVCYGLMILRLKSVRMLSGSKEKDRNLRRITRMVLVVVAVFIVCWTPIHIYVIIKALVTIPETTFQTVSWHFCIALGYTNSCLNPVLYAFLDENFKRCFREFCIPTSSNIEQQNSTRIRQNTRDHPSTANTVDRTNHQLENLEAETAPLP

[12] = target: Bone morphogenetic protein receptor type-2 (Homo sapiens) (UniProt Q13873); settings: Compound concentration 1000.0 nM
Bone morphogenetic protein receptor type-2 (Homo sapiens), sequence (Q13873 whole entry): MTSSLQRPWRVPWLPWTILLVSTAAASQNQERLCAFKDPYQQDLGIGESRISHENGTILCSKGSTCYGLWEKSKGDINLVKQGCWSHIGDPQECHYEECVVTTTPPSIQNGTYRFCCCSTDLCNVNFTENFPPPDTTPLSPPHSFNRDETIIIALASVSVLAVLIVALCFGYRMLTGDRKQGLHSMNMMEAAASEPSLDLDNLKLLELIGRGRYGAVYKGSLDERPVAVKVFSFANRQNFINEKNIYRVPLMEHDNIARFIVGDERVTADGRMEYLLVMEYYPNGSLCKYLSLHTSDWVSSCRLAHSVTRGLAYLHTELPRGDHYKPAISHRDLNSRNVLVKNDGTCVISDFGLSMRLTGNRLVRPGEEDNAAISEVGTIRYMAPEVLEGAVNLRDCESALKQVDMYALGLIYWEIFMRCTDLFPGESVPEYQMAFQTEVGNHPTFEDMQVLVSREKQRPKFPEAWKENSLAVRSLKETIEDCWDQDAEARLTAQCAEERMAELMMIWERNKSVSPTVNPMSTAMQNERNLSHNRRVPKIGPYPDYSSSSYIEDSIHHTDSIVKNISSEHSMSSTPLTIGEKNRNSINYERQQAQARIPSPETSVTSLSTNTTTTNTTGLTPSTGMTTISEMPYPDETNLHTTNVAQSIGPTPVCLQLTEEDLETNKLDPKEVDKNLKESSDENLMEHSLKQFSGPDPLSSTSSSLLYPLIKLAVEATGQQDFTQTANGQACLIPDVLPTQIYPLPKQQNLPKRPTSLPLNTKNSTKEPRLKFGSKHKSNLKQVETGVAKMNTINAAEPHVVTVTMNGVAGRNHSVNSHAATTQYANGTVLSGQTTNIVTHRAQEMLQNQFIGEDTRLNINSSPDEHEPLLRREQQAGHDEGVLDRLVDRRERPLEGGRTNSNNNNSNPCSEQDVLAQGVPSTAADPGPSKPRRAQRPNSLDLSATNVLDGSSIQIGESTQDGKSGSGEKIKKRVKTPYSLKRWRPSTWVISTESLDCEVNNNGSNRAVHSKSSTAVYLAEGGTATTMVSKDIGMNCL

[13] = target: Glycogen synthase kinase-3 beta (Homo sapiens) (UniProt P49841); settings: Compound concentration 1000.0 nM
[14] = target: Peripheral plasma membrane protein CASK (Homo sapiens) (UniProt O14936); settings: Compound concentration 1000.0 nM
[15] = target: Casein kinase II subunit alpha' (Homo sapiens) (UniProt P19784); settings: Compound concentration 1000.0 nM
[16] = target: Receptor-interacting serine/threonine-protein kinase 4 (Homo sapiens) (UniProt P57078); settings: Compound concentration 1000.0 nM
Receptor-interacting serine/threonine-protein kinase 4 (Homo sapiens), sequence (P57078 whole entry, canonical isoform): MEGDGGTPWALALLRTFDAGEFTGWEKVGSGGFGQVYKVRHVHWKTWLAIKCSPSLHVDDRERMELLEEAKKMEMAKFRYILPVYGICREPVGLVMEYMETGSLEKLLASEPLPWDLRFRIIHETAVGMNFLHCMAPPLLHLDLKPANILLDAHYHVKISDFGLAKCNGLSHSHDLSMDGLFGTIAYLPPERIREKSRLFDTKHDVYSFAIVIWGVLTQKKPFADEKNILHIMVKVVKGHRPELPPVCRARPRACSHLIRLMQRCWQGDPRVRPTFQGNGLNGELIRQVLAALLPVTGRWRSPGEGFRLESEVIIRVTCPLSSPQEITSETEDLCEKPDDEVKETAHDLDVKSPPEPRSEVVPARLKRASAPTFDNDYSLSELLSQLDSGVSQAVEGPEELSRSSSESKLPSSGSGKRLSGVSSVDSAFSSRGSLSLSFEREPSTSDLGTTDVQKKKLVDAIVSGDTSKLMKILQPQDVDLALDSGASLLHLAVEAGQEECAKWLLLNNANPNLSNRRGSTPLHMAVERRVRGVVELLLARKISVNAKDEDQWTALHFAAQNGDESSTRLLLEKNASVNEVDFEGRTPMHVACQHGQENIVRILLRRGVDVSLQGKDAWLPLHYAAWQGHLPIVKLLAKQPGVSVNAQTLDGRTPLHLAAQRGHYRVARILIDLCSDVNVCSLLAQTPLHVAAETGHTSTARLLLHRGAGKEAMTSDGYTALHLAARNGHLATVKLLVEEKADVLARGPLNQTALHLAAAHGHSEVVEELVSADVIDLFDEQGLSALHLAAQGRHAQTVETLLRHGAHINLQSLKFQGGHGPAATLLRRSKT

[17] = test system: Phosphatidylinositol 4,5-bisphosphate 3-kinase catalytic subunit alpha isoform (Homo sapiens), P42336 [H1047L]; settings: Compound concentration 1000.0 nM
[18] = target: Mitogen-activated protein kinase kinase kinase 20 (Homo sapiens) (UniProt Q9NYL2); settings: Compound concentration 1000.0 nM
[19] = target: T2, Serine/threonine-protein kinase Nek2 (Homo sapiens) (UniProt P51955); settings: Compound concentration 1000.0 nM
T2 sequence (whole entry): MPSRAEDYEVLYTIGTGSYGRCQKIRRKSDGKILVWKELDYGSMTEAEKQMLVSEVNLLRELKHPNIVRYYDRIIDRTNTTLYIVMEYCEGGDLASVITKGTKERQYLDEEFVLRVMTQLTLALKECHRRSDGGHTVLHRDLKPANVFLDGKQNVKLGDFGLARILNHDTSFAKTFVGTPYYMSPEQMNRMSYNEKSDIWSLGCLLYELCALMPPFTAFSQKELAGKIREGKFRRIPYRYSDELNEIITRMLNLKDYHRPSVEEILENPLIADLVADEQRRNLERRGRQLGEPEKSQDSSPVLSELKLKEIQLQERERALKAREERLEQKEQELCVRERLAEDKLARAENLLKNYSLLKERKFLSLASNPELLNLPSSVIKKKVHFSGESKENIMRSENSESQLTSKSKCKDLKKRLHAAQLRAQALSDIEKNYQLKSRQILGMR

[20] = target: Dual specificity protein kinase CLK2 (Homo sapiens) (UniProt P49760); settings: Compound concentration 1000.0 nM
[21] = target: T3, 5-hydroxytryptamine receptor 1A (Homo sapiens) (UniProt P08908); settings: Compound concentration 10.0 uM
T3 sequence (whole entry): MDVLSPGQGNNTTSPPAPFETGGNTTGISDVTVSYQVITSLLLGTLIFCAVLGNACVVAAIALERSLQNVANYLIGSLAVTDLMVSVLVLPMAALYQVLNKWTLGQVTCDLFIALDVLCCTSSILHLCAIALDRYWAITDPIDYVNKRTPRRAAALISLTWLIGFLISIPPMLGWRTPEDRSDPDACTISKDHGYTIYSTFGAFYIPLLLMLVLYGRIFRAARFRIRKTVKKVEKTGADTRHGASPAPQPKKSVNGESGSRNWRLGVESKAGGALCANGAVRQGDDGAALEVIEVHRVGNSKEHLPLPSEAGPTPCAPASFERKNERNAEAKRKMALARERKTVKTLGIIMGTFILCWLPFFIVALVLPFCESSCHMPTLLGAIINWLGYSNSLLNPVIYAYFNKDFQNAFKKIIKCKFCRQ

[22] = target: Macrophage-stimulating protein receptor (Homo sapiens) (UniProt Q04912); settings: Compound concentration 1000.0 nM

RAF proto-oncogene serine/threonine-protein kinase (Homo sapiens), sequence (P04049 whole entry): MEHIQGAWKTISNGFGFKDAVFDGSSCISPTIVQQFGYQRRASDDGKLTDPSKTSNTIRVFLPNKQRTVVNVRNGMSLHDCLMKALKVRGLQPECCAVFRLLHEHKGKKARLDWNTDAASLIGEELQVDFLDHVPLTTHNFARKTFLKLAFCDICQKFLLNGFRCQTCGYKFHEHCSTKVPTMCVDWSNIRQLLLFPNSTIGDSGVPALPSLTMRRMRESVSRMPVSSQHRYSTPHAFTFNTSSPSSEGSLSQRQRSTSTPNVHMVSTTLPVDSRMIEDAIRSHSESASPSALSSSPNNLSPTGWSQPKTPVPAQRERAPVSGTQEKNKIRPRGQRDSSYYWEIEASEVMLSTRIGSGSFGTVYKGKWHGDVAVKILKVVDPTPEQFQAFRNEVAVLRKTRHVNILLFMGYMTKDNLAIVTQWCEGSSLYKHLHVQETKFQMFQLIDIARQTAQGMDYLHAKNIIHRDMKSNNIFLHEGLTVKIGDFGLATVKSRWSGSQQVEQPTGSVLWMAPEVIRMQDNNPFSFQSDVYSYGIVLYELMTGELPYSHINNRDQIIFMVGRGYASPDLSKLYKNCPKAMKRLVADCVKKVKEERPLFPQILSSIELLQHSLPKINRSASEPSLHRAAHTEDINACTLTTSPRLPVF

| SMILES | residual activity [1] | residual activity [2] | residual activity [3] | inhibition [4] | residual activity [5] | residual activity [6] | residual activity [7] | residual activity [8] | residual activity [9] | residual activity [10] | inhibition [11] | residual activity [12] | residual activity [13] | residual activity [14] | residual activity [15] | residual activity [16] | residual activity [17] | residual activity [18] | residual activity [19] | residual activity [20] | also measured |
| --- | --- | --- | --- | --- | --- | --- | --- | --- | --- | --- | --- | --- | --- | --- | --- | --- | --- | --- | --- | --- | --- |
| CN(C)C(=O)Cn1cc(-c2nc(C3(c4ccc(-c5cnc(N)nc5)cc4)CC3)no2)cn1 [BI 0153] | 83% | 100% | 100% | 22.4% | 84% | 100% | 95% | 90% | 100% | 80% | 12.6% | 93% | 81% | 76% | 100% | 70% | 73% | 92% | 100% | 94% | inhibition [21]: 31.5%; residual activity [22]: 95% |
| CN(C)C(=O)Cn1cc(-c2nc([C@@](C)(c3ccc(-c4cnc(N)nc4)cc3)C3CC3)no2)cn1 [BI 665915] | 100% | 88% | 100% | -3.33% | 100% | 0% | 90% | 88% | 96% | 100% | 4.55% | 94% | 100% | 82% | 90% | 93% | 100% | 80% | 97% | 96% | inhibition [21]: 6.78%; residual activity [22]: 79% |

From ChEMBL document CHEMBL4507276 (2021)
